Measurements as given in paper PMC8597039, “Fluorescent Amino Acid Initiated de novo Cyclic Peptides for the Label‐Free Assessment of Cell Permeability” (Chemmedchem, 2021).
Where a SMILES comes first, the peptide text is derived from it. [ ]: non-standard residue; d: D form. Ala(azulen-1-yl) = N[C@@H](Cc1ccc2cccccc1-2)C(=O)O; Trp(4-CN) = N#Cc1cccc2[nH]cc(C[C@H](N)C(=O)O)c12

System: U2OS cells
Test: Live cell fluorescence microscopy of peptide uptake
Conditions: 37 °C, excitation 340 nm
[1] = 50 µM peptide in OPTI-MEM, 20 min, 0.5% DMSO, washed once, ET460/50m (4CNW) or ET395/25x (AzAla) emission filter

Row | intracellular fluorescence (cell uptake) (50 µM peptide, 24 h, ET460/50m emission filter) | Compound | intracellular fluorescence (cell uptake) [1]
1 | – | CC(=O)N[C@@H](Cc1c[nH]c2cccc(C#N)c12)C(=O)NCC(=O)N[C@@H](CCCNC(=N)N)C(=O)N[C@@H](CCCCN)C(=O)N[C@@H](CCCCN)C(=O)N[C@@H](CCCNC(=N)N)C(=O)N[C@@H](CCCNC(=N)N)C(=O)N[C@@H](CCC(N)=O)C(=O)N[C@@H](CCCNC(=N)N)C(=O)N[C@@H](CCCNC(=N)N)C(=O)N[C@@H](CCCNC(=N)N)C(=O)N1CCC[C@H]1C(=O)N[C@@H](CCC(N)=O)C(=O)N1CCC[C@H]1C(=O)N[C@@H](CCCCN)C(=O)N[C@@H](CCCCN)C(=O)N[C@@H](CCCCN)C(=O)N[C@@H](CCCNC(=N)N)C(=O)N[C@@H](CCCCN)C(=O)N[C@H](C(N)=O)C(C)C [4CNW‐P3] (Ac-[Trp(4-CN)]GRKKRRQRRRPQPKKKRKV-NH2) | considerable intracellular fluorescence
2 | appreciable intracellular fluorescence | CC[C@H](C)[C@@H]1NC(=O)[C@H](Cc2c[nH]c3ccccc23)NC(=O)[C@H](Cc2c[nH]c3cccc(C#N)c23)NC(=O)[C@H](CC(=O)O)NC(=O)CNC(=O)[C@H](CO)NC(=O)[C@H](CC(=O)O)NC(=O)[C@H](CC(=O)O)NC(=O)[C@H](CC(C)C)NC(=O)[C@H](Cc2ccc(O)cc2)NC(=O)[C@H](CC(C)C)NC(=O)[C@@H](Cc2c[nH]c3ccccc23)NC(=O)CSC[C@@H](C(=O)NCC(N)=O)NC1=O [4CNW‐P4] | –
3 | – | CC(=O)N[C@@H](Cc1ccc2cccccc1-2)C(=O)NCC(=O)N[C@@H](CCCNC(=N)N)C(=O)N[C@@H](CCCCN)C(=O)N[C@@H](CCCCN)C(=O)N[C@@H](CCCNC(=N)N)C(=O)N[C@@H](CCCNC(=N)N)C(=O)N[C@@H](CCC(N)=O)C(=O)N[C@@H](CCCNC(=N)N)C(=O)N[C@@H](CCCNC(=N)N)C(=O)N[C@@H](CCCNC(=N)N)C(=O)N1CCC[C@H]1C(=O)N[C@@H](CCC(N)=O)C(=O)N1CCC[C@H]1C(=O)N[C@@H](CCCCN)C(=O)N[C@@H](CCCCN)C(=O)N[C@@H](CCCCN)C(=O)N[C@@H](CCCNC(=N)N)C(=O)N[C@@H](CCCCN)C(=O)N[C@H](C(N)=O)C(C)C [AzAla‐P3] (Ac-[Ala(azulen-1-yl)]GRKKRRQRRRPQPKKKRKV-NH2) | considerable intracellular fluorescence
